This note sets out measurements from patent publication US6156724A, “Uses of didemnins as immunomodulating agents” (priority 1998, dated 2000).

The subject of data set [1] is Balb/c splenocytes (resting lymphocytes). Kind of data set: Lymphocyte viability (LcV) assay. Format: cell-based, murine. The note with it: unstimulated Balb/c splenocytes, MTT. On the procedure: Forty two (42) didemnin compounds (see Table 1) were evaluated for cytotoxicity to one of the lymphocyte populations in the MLR (i.e., Balb/c splenocytes). The purpose of the lymphocyte viability assay (LcV) is to measure metabolic activity in lymphocytes after they have been exposed to the compounds for the duration of an under conditions equivalent to the MLR. The inverse of the data yields cytotoxicity information about the compounds on murine lymphocytes. The rationale of using resting cells, in this case unstimulated lymphocytes, to measure cytotoxicity has a strategic importance. In the MLR the heterogenous cell populations are predominantly resting cells when the assay begins.
Test compounds were prepared in two sets as described above. Splenocytes were prepared as described previously from one murine strain (Balb/c), and a volume of 200 μL of the cell suspension was added to one set of test compounds and control wells.
Assay plates were incubated as in the MLR and then pulsed overnight 75 μL per well MTT-thiazolyl blue solution (150 μg). The plates were decanted and the resulting insoluble formazan crystals were dissolved in 200 μL of isopropyl alcohol. Absorbance at 570 nm was measured.
The LcV data were calculated as a percentage of basal metabolic activity, or percent viability, relative to BALB/c control, and an LC50 value was interpolated for each test compound.

Data set [2] has as its system concanavalin A-induced lymphoblasts (Con A splenocytes). Kind of data set: Lymphoblast viability (LbV) assay. Conditions: Con A-stimulated splenocytes (lymphoblasts), MTT.
Data set [3] deals with murine splenocytes (Balb/c and C57B1/6). Kind of data set: Two-way mixed lymphocyte reaction (MLR) assay.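 On all read-outs here: proliferation read as tritiated thymidine incorporation into newly made DNA after an overnight pulse, expressed as percent of control activity, IC50 interpolated per compound.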 Conditions: Balb/c + C57B1/6 splenocytes, 96 h, [3H]thymidine; for IC50: read-out: two-way mixed lymphocyte reaction (MLR) suppression MLR, IC50.
Data set [4] relates to CB6F1 mice grafted with Balb/c splenocytes. Kind of data set: Graft vs host reaction (GVHR) splenomegaly assay. Conditions: 200 mg/Kg/day, QD 1-7, ip. Format: in vivo. On the procedure:
Three representative compounds didemnin M (38), O-pGlu-DB (37), and didemnin B (1)-showing high (37,38) or moderate (1) in vivo immunosuppressive activity were subsequently evaluated in a multidose assay (0.16,0.016, and 0.0016 mg/kg per injection; qd 1-7) for their in vivo immunosuppressive effects on the GVHR splenomegaly assay.
Three didemnins (didemnin B, didemnin M, and pGlu-didemnin B) were evaluated in a modified Simonsen splenomegaly assay. Briefly, an F1 hybrid host animal is grated with immunocompetent spleen cells from the parent strain. The index used to measure the success of the GVHR is splenomegaly (increased spleen weight due to cellular proliferation of grafted lymphocytes). An index>1.3 (graft index) is considered to be a successful graft rejection of the recipient animal. Immunosuppression is considered as a reduction of the graft index.
On day O, CB6F1 female mice, 4 weeks of age, were grated by intraperitoneal (ip) injection of 50×10^5 splenocytes from BALB/c female mice in high-glucose ([…]) Dulbecco's modified Eagles medium. A syngeneic control group (CB6F1 --CB6F1) was similarly prepared and served as the negative control. Grafted mice were divided into treatment groups containing six mice each. Groups were injected ip with test compound (dissolved in vehicle; 1% abs. EtOH in sterile phosphate-buffered saline) at one of three dose levels (0.16, 0.016, and 0.0016 mg/kg per injection) in a multidose assay, cyclophosphamide (200 mg/kg per injection) or vehicle on days 1-7 (qd 1-7). On day 8 all groups were sacrificed, spleens were excised, and a graft index was calculated for each group by the following formula: [formula]

Numbered stars: 1 amine (or outer) side, 2 acyl side, 3 side chain; on linkers, the order of the positions; unused ones are H or OH. Bridge positions count the residues as written; N and C are the ends. Square brackets hold non-standard residues; d marks the D form. Peptide text beside a SMILES is read from it. * marks the point of attachment. X4 = CC[C@H](C)[C@@H](N[*:1])[C@@H](O)CC(=O)O[C@@H](C(C)C)[C@H](O)[C@H](C)C(=O)[*:2]; X2 = CC[C@H](C)[C@@H](N[*:1])[C@@H](O)CC(=O)O[C@@H](C(=O)[C@H](C)C(=O)[*:2])C(C)C; X5 = CC[C@@H](C)[C@@H](N[*:1])[C@@H](O)CC(=O)O[C@H](C(=O)[C@H](C)C(=O)[*:2])C(C)C; X1 = CC[C@H](C)[C@@H](N[*:1])[C@@H](O)CC(=O)O[C@H](C(=O)[C@H](C)C(=O)[*:2])C(C)C; X3 = CC[C@H](C)[C@H](N[*:1])[C@@H](O)CC(=O)O[C@H](C(=O)[C@H](C)C(=O)[*:2])C(C)C; X6 = CC[C@H](C)[C@@H](N[*:1])[C@H](O)CC(=O)O[C@H](C(=O)[C@H](C)C(=O)[*:2])C(C)C; NMeY = CN[C@@H](Cc1ccc(O)cc1)C(=O)O; dNMeL = CN[C@H](CC(C)C)C(=O)O; Cbz = O=C(OCc1ccccc1)*

What is called IC50 is the point on the concentration scale where inhibition reaches its midpoint.

Turning to `CC[C@H](C)[C@H]1NC(=O)[C@@H](NC(=O)[C@@H](CC(C)C)NC)[C@@H](C)OC(=O)[C@H](Cc2ccc(OC)cc2)N(C)C(=O)[C@@H]2CCCN2C(=O)[C@H](CC(C)C)NC(=O)[C@@H](C)C(=O)[C@H](C(C)C)OC(=O)C[C@@H]1O` [Compound 2, Didemnin A] (H-[dNMeL]T[X1]LP[NMeY](Me); ester 2-C), in data set [1], the “cytoxicity to lymphocytes LcV, LC50” value was over 11000 nM. Besides, in data set [1] (highest concentration 10 μg/mL), the “cytoxicity to lymphocytes LcV, LC50” value is over 10 µg/mL. In addition, the “cytotoxicity to lymphocytes LbV, LC50” value in data set [2] turned out to be 15 nM. In addition, in data set [3], the “two-way mixed lymphocyte reaction (MLR) suppression MLR, IC50” value (shortened to “two-way mixed lymphocyte reaction”) was determined as 0.00093 µg/mL and the IC50 stood at 0.98 nM.
For `CC[C@H](C)[C@H]1NC(=O)[C@@H](NC(=O)[C@@H](CC(C)C)N(C)C(=O)OCc2ccccc2)[C@@H](C)OC(=O)[C@H](Cc2ccc(OC)cc2)N(C)C(=O)[C@@H]2CCCN2C(=O)[C@H](CC(C)C)NC(=O)[C@@H](C)C(=O)[C@H](C(C)C)OC(=O)C[C@@H]1O` [Compound 3, Z-Didemnin A] (Cbz-[dNMeL]T[X1]LP[NMeY](Me); ester 2-C) the same measures were 7500 nM, 8.10 µg/mL, 1.9 nM, 0.0011 µg/mL and 1.02 nM.
For `CC[C@H](C)[C@H]1NC(=O)[C@@H](NC(=O)[C@@H](CC(C)C)N(C)C(=O)OCc2ccccc2)[C@@H](C)OC(=O)[C@H](Cc2ccc(OC)cc2)N(C)C(=O)[C@@H]2CCCN2C(=O)[C@H](CC(C)C)NC(=O)[C@@H](C)C(=O)[C@H](C(C)C)OC(=O)C[C@H]1O` [Compound 4, Z-[(3R,4R,5S)Ist^2]Didemnin A] (Cbz-[dNMeL]T[X6]LP[NMeY](Me); ester 2-C) the same measures were 9000 nM, 9.70 µg/mL, 220 nM, 0.019 µg/mL and 18 nM.
For the compound `CC[C@@H](C)[C@H]1NC(=O)[C@@H](NC(=O)[C@@H](CC(C)C)N(C)C(=O)OCc2ccccc2)[C@@H](C)OC(=O)[C@H](Cc2ccc(OC)cc2)N(C)C(=O)[C@@H]2CCCN2C(=O)[C@H](CC(C)C)NC(=O)[C@@H](C)C(=O)[C@H](C(C)C)OC(=O)C[C@@H]1O` [Compound 5, Z-[(3S,4R,5R)-Ist^2]Didemnin A] (Cbz-[dNMeL]T[X5]LP[NMeY](Me); ester 2-C), the “cytoxicity to lymphocytes LcV, LC50” value is over 9300 nM in data set [1] and over 10 µg/mL in data set [1] (highest concentration 10 μg/mL). In data set [2], the “cytotoxicity to lymphocytes LbV, LC50” value is 12 nM. Moreover, the “two-way mixed lymphocyte reaction” value in data set [3] worked out at 0.0003 µg/mL. Moreover, the IC50 in data set [3] was found to be 0.28 nM.
`CC[C@H](C)[C@@H]1NC(=O)[C@@H](NC(=O)[C@@H](CC(C)C)N(C)C(=O)OCc2ccccc2)[C@@H](C)OC(=O)[C@H](Cc2ccc(OC)cc2)N(C)C(=O)[C@@H]2CCCN2C(=O)[C@H](CC(C)C)NC(=O)[C@@H](C)C(=O)[C@H](C(C)C)OC(=O)C[C@@H]1O` [Compound 6, Z-[(3S,4S,5S)-Ist^2]Didemnin A] (Cbz-[dNMeL]T[X3]LP[NMeY](Me); ester 2-C): the “cytoxicity to lymphocytes LcV, LC50” value in data set [1] is over 9300 nM. In addition, the “cytoxicity to lymphocytes LcV, LC50” value in data set [1] (highest concentration 10 μg/mL) was over 10 µg/mL. For the same compound, the “cytotoxicity to lymphocytes LbV, LC50” value in data set [2] turned out to be 2600 nM. In addition, in data set [3], the “two-way mixed lymphocyte reaction” value came out at 0.29 µg/mL and the IC50 amounted to 270 nM.
As to `CC[C@H](C)[C@H]1NC(=O)[C@@H](NC(=O)[C@@H](CC(C)C)NC)[C@@H](C)OC(=O)[C@H](Cc2ccc(OC)cc2)N(C)C(=O)[C@@H]2CCCN2C(=O)[C@H](CC(C)C)NC(=O)[C@@H](C)C(=O)[C@H](C(C)C)OC(=O)C[C@@H]1OC(C)=O` [Compound 7, O-Acetyldidemnin A], the “cytoxicity to lymphocytes LcV, LC50” value in data set [1] was over 10000 nM; in data set [1] (highest concentration 10 μg/mL) it was over 10 µg/mL. For the same compound, the “cytotoxicity to lymphocytes LbV, LC50” value in data set [2] is 77 nM. In data set [3], the “two-way mixed lymphocyte reaction” value turned out to be 0.1 µg/mL. In data set [3], the IC50 is 100 nM.
For `CC[C@H](C)[C@H]1NC(=O)[C@@H](NC(=O)[C@@H](CC(C)C)NC)[C@@H](C)OC(=O)[C@H](Cc2ccc(OC)cc2)N(C)C(=O)[C@@H]2CCCN2C(=O)[C@H](CC(C)C)NC(=O)[C@@H](C)[C@@H](O)[C@H](C(C)C)OC(=O)C[C@@H]1O` [Compound 10, [(2S,3R,4S)-H2 Hip^3]Didemnin A] (H-[dNMeL]T[X4]LP[NMeY](Me); ester 2-C) the same measures were over 10600 nM, over 10 µg/mL, 460 nM, 0.029 µg/mL and 30.5 nM.
Taken in the same sequence, the figures for `CC[C@H](C)[C@H]1NC(=O)[C@@H](NC(=O)[C@@H](CC(C)C)N(C)C(=O)[C@@H]2CCCN2C(=O)[C@H](C)O)[C@@H](C)OC(=O)[C@H](Cc2ccc(OC)cc2)N(C)C(=O)[C@@H]2CCCN2C(=O)[C@H](CC(C)C)NC(=O)[C@@H](C)C(=NO)[C@H](C(C)C)OC(=O)C[C@@H]1O` [Compound 11, [Hip^3 oxime]Didemnin B] were over 8900 nM, over 10 µg/mL, 1.7 nM, 0.00096 µg/mL and 0.85 nM.
Taken in the same sequence, the figures for `CC[C@H](C)[C@H]1NC(=O)[C@@H](NC(=O)[C@@H](CC(C)C)NC)[C@@H](C)OC(=O)[C@H](Cc2ccc(OC)cc2)N(C)C(=O)[C@@H]2CCCN2C(=O)[C@H](CC(C)C)NC(=O)[C@@H](C)C(=O)[C@@H](C(C)C)OC(=O)C[C@@H]1O` [Compound 12, Epididemnin A1] (H-[dNMeL]T[X2]LP[NMeY](Me); ester 2-C) were over 10600 nM, over 10 µg/mL, 51 nM, 0.081 µg/mL and 86 nM.
Consider `CC[C@H](C)[C@H]1NC(=O)[C@@H](NC(=O)[C@@H](CC(C)C)N(C)C(=O)[C@@H]2CCCN2C(=O)[C@H](C)O)[C@@H](C)OC(=O)[C@H](Cc2ccc(O)cc2)NC(=O)[C@@H]2CCCN2C(=O)[C@H](CC(C)C)NC(=O)[C@@H](C)C(=O)[C@H](C(C)C)OC(=O)C[C@@H]1O` [Compound 13, Didemnin N], for which the “cytoxicity to lymphocytes LcV, LC50” value in data set [1] was over 9200 nM. For the same compound, the “cytoxicity to lymphocytes LcV, LC50” value in data set [1] (highest concentration 10 μg/mL) was over 10 µg/mL. Further, in data set [2], the “cytotoxicity to lymphocytes LbV, LC50” value was 210 nM. In addition, in data set [3], the “two-way mixed lymphocyte reaction” value was 0.037 µg/mL and the IC50 came to 34.2 nM.
As for `CC[C@H](C)[C@H]1NC(=O)[C@@H](NC(=O)[C@@H](CC(C)C)N(C)C(=O)[C@@H]2CCCN2C(=O)[C@H](C)O)[C@@H](C)OC(=O)[C@H](CC2CCC(OC)CC2)N(C)C(=O)[C@@H]2CCCN2C(=O)[C@H](CC(C)C)NC(=O)[C@@H](C)C(=O)[C@H](C(C)C)OC(=O)C[C@@H]1O` (stereo partly shown) [Compound 15, [H6 Me2 Tyr6]Didemnin B], the “cytotoxicity to lymphocytes LbV, LC50” value in data set [2] was 1.6 nM. Moreover, in data set [3], the “two-way mixed lymphocyte reaction” value was 0.00081 µg/mL and the IC50 is 0.72 nM.
As for `O=P1(N(CCCl)CCCl)NCCCO1` (stereo not shown) [Cyclophosphamide, reference compound], in data set [4], the “alive day 8” value is on record as 100%, the “body weight change day 5” value is -2.5 g, the “body weight day 5 (g ± SD)” value is on record as 13.8 ± 0.4 g and the “index (spleen wt. treated/spleen wt. syngenetic injection)” value stood at 0.14. For the same compound, the “mean group spleen wt. normalized to day 8 body weight” value in data set [4] is on record as 0.4.
